Source: ChEMBL document CHEMBL4028847, “Perspectives of Cannabinoid Type 2 Receptor (CB2R) Ligands in Neurodegenerative Disorders: Structure-Affinity Relationship (SAfiR) and Structure-Activity Relationship (SAR) Studies” (J Med Chem, 2017)

What was measured:
[1] = organism: Homo sapiens; experiment: Selectivity index, ratio of Ki for CB1 receptor (unknown origin) to Ki for CB2 receptor (unknown origin)
[2] = biological target: T1, Cannabinoid receptor 2 (Homo sapiens, UniProt P34972); experiment: Binding affinity to CB2 receptor (unknown origin)
[3] = biological target: T2, Cannabinoid receptor 1 (Homo sapiens, UniProt P21554); experiment: Binding affinity to CB1 receptor (unknown origin)
[4] = biological target: T1, Cannabinoid receptor 2; experiment: Agonist activity at human CB2 receptor expressed in mouse AtT-20 cells co expressing GIRK by FLIPR assay; assay type: cell-based
[5] = organism: Homo sapiens; experiment: Selectivity index, ratio of EC50 for human CB1 receptor to Ki for human CB2 receptor
[6] = biological target: T2, Cannabinoid receptor 1; experiment: Agonist activity at human CB1 receptor expressed in mouse AtT-20 cells co expressing GIRK by FLIPR assay; assay type: cell-based
[7] = biological target: T1, Cannabinoid receptor 2; experiment: Activity at CB2 receptor (unknown origin)
[8] = biological target: T1, Cannabinoid receptor 2; experiment: Inhibition of CB2 receptor (unknown origin)

T2 sequence (P21554 whole entry): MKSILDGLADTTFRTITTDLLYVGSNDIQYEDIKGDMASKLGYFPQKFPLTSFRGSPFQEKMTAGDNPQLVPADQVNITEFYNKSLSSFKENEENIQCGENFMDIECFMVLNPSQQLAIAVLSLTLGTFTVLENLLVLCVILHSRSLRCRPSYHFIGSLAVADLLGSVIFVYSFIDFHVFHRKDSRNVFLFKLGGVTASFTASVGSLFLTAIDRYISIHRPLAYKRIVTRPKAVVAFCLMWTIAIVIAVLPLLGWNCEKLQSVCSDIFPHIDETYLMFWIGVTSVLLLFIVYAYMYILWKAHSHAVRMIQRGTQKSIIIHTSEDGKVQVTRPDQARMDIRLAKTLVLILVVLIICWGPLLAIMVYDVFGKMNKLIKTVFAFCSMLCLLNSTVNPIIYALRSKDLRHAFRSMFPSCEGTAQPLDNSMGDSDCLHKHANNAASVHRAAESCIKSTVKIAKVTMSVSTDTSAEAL
T1 sequence (P34972 whole entry): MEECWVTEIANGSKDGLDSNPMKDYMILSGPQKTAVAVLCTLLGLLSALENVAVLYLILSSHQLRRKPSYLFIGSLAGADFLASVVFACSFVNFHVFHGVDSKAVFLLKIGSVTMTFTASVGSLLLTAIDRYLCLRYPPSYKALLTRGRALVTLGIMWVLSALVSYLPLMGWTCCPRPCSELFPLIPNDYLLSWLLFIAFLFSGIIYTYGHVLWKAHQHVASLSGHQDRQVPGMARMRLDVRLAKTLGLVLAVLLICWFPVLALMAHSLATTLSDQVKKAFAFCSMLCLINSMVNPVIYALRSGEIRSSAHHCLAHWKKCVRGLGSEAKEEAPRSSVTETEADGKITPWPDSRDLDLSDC

For `COc1cccc2c(=O)c(C(=O)NC34CC5CC(CC(C5)C3)C4)cn(CCOCCF)c12`, the Ratio Ki ([1]; tested as the 18F-labelled form) was over 8330.
`CCCc1sc(NC(=O)C23CC4CC(CC(C4)C2)C3)c(C(=O)O[11CH3])c1C` gave a Ki [2] of 4.3 nM and a Ki [3] of 1100 nM.
Work on `COc1cccc2c(=O)c(C(=O)NC34CC5CC(CC(C5)C3)C4)cn(CCOCC[18F])c12` yielded a Ki [2] of 1.2 nM and a Ki [3] of over 10000 nM.
In the case of `CCCCCn1cc(C(=O)c2ccccc2OC)c2ccccc21`, the EC50 [4] is reported as 6.9 nM, the Selectivity Index [5] is reported as 7.8 and the EC50 [6] is reported as 54 nM.
Work on `CCCc1sc(NC(=O)C23CC4CC(CC(C4)C2)C3)c(C(=O)OC)c1C` yielded a Ratio Ki ([1]; tested as the 11C-labelled form) of 256.
In the case of `CCCCCn1nc(C(=O)N[C@H](C(N)=O)C(C)C)c2ccccc21`, the Ratio EC50 [5] is reported as 1.5 to 3.2 and the EC50 [6] is reported as 2.1 to 7.8 nM.
For `CC(C)[C@H](NC(=O)c1nn(CC2CCCCC2)c2ccccc12)C(N)=O`, the Ratio EC50 [5] was 1.5 to 3.2 and the EC50 [6] was 2.1 to 7.8 nM.
`CCCCn1cc(C(=O)c2ccccc2OC)c2ccccc21` gave an EC50 [4] of 4.5 nM, a Selectivity Index [5] of 39.6 and an EC50 [6] of 178 nM.
In the case of `CC(C)[C@H](NC(=O)c1nn(CCCCCF)c2ccccc12)C(N)=O`, the Ratio EC50 [5] is reported as 1.5 to 3.2 and the EC50 [6] is reported as 2.1 to 7.8 nM.
In the case of `CCOc1nc(NC2CCCC2)nc(N2CCN(CC[18F])CC2)n1`, the EC50 [7] is reported as 40 nM.
`CC(C)[C@H](NC(=O)c1nn(Cc2ccc(F)cc2)c2ccccc12)C(N)=O` was tested, and the EC50 [6] was 2.1 to 7.8 nM.
`[2H]C([2H])([18F])Oc1nc(NCCc2ccc(F)cc2)nc(-c2ccc(Cl)c(C(C)(C)O)c2)n1` gave an IC50 [8] of 1.4 nM.
`CCOCCn1cc(C(=O)NC23CC4CC(CC(C4)C2)C3)c(=O)c2cccc(O[11CH3])c21` was tested, and the Ki [3] was over 10000 nM.
